In data set [1] the test system is recombinant NL4-3 virus (nef section replaced with Renilla luciferase gene) in MT-2 cells. As to the kind of experiment: HIV cell culture assay (antiviral activity, luciferase readout). Format: cell-based. Particulars: Renilla, NL43, MT-2 cells infected for 4-5 days with recombinant NL4-3 Renilla luciferase virus. In outline:
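The reporter virus was produced by transfecting 293T cells with the NL4-3 nef/Renilla luciferase proviral clone. MT-2 cells were infected for 4–5 days with serial compound dilutions present. Luciferase was read with a live-cell substrate, and EC50 came from the exponential median-effect equation.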

Data set [2] in a line: Compound cytotoxicity, XTT-based colorimetric assay. Format: cell-based. The note with it: human; uninfected MT2 cells, day 4, XTT; read-out: CC50. In outline: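 CC50 derived from XTT colorimetric signal measured on day 4 in MT2 cells that were not infected. All other steps followed the antiviral assay protocol.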
For orientation: Formazan colour is commonly taken as a measure of viable cells.

pEC50: −log10 of the molar value.

This note sets out measurements from US12594276B2, “Inhibitors of human immunodeficiency virus replication” (ViiV Healthcare UK (No.5) Limited, priority 2024, dated 2026).

The pEC50 is the EC50 on a negative log10 scale, so that one unit is a factor of ten. For orientation: CC50 means the concentration giving 50% cytotoxicity. On to `CO[C@@H](C)Cn1nc(NS(C)(=O)=O)c2c(Cl)ccc(-n3c([C@H](Cc4cc(F)cc(F)c4)NC(=O)Cn4nc(C(F)F)c5c4C(F)(F)[C@@H]4C[C@H]54)nc4nc(C5CCC(F)(F)CC5)cc(C)c4c3=O)c21` (atropisomer, axis not shown; (P)) [Example 78, N-[(1S)-1-[(3P)-3-{4-chloro-3-methanesulfonamido-1-[(2S)-2-methoxypropyl]-1H-indazol-7-yl}-7-(4,4-difluorocyclohexyl)-5-methyl-4-oxo-3H,4H-pyrido[2,3-d]pyrimidin-2-yl]-2-(3,5-difluorophenyl)ethyl]-2-[(2S,4R)-9-(difluoromethyl)-5,5-difluoro-7,8-diazatricyclo[4.3.0.0^2,^4]nona-1(6),8-dien-7-yl]acetamide], for which the pEC50 in data set [1] was 10.80. Further, the CC50 at 4 days in data set [2] is more than 50 nM.

Regarding `COCCn1nc(NS(C)(=O)=O)c2c(Cl)ccc(-n3c([C@H](Cc4cc(F)cc(F)c4)NC(=O)Cn4nc(C(F)F)c5c4C(F)(F)[C@@H]4C[C@H]54)nc4nc(C5CCC(F)(F)CC5)cc(C)c4c3=O)c21` (atropisomer, axis not shown; (P)) [Example 84, N-[(1S)-1-[(3P)-3-[4-chloro-3-methanesulfonamido-1-(2-methoxyethyl)-1H-indazol-7-yl]-7-(4,4-difluorocyclohexyl)-5-methyl-4-oxo-3H,4H-pyrido[2,3-d]pyrimidin-2-yl]-2-(3,5-difluorophenyl)ethyl]-2-[(2S,4R)-9-(difluoromethyl)-5,5-difluoro-7,8-diazatricyclo[4.3.0.0^2,^4]nona-1(6),8-dien-7-yl]acetamide], the pEC50 in data set [1] was 10.80. The CC50 at 4 days in data set [2] was more than 50 nM.

Turning to `COCCCn1nc(NS(C)(=O)=O)c2c(Cl)ccc(-n3c([C@H](Cc4cc(F)cc(F)c4)NC(=O)Cn4nc(C(F)F)c5c4C[C@@H]4C[C@H]54)nc4nc(C5CCC(F)(F)CC5)cc(C)c4c3=O)c21` (atropisomer, axis not shown; (P)) [Example 86, N-[(1S)-1-[(3P)-3-[4-chloro-3-methanesulfonamido-1-(3-methoxypropyl)-1H-indazol-7-yl]-7-(4,4-difluorocyclohexyl)-5-methyl-4-oxo-3H,4H-pyrido[2,3-d]pyrimidin-2-yl]-2-(3,5-difluorophenyl)ethyl]-2-[(2S,4S)-9-(difluoromethyl)-7,8-diazatricyclo[4.3.0.0^2,^4]nona-1(6),8-dien-7-yl]acetamide], the pEC50 in data set [1] is 10.96. For the same molecule, the CC50 at 4 days in data set [2] was more than 50 nM.

On to `COCCCn1nc(NS(C)(=O)=O)c2c(Cl)ccc(-n3c([C@H](Cc4cc(F)cc(F)c4)NC(=O)Cn4nc(C5CC5)c5c4C[C@@H]4C[C@H]54)nc4nc(C5CCC(F)(F)CC5)cc(C)c4c3=O)c21` (atropisomer, axis not shown; (P)) [Example 87, N-[(1S)-1-[(3P)-3-[4-chloro-3-methanesulfonamido-1-(3-methoxypropyl)-1H-indazol-7-yl]-7-(4,4-difluorocyclohexyl)-5-methyl-4-oxo-3H,4H-pyrido[2,3-d]pyrimidin-2-yl]-2-(3,5-difluorophenyl)ethyl]-2-[(2S,4S)-9-cyclopropyl-7,8-diazatricyclo[4.3.0.0^2,^4]nona-1(6),8-dien-7-yl]acetamide], for which the pEC50 in data set [1] was 10.72. In addition, in data set [2], the CC50 at 4 days is more than 50 nM.

In the case of `COCCCn1nc(NS(C)(=O)=O)c2c(Cl)ccc(-n3c([C@H](Cc4cc(F)cc(F)c4)NC(=O)Cn4nc(C(F)(F)F)c5c4C[C@@H]4C[C@H]54)nc4nc(C5CCC(F)(F)CC5)cc(C)c4c3=O)c21` (atropisomer, axis not shown; (P)) [Example 88, N-[(1S)-1-[(3P)-3-[4-chloro-3-methanesulfonamido-1-(3-methoxypropyl)-1H-indazol-7-yl]-7-(4,4-difluorocyclohexyl)-5-methyl-4-oxo-3H,4H-pyrido[2,3-d]pyrimidin-2-yl]-2-(3,5-difluorophenyl)ethyl]-2-[(2S,4S)-9-(trifluoromethyl)-7,8-diazatricyclo[4.3.0.0^2,^4]nona-1(6),8-dien-7-yl]acetamide], in data set [1], the pEC50 was 10.68. The CC50 at 4 days in data set [2] is more than 50 nM.

As to `COCCCn1nc(NS(C)(=O)=O)c2c(Cl)ccc(-n3c([C@H](Cc4cc(F)cc(F)c4)NC(=O)Cn4nc(C(F)(F)F)c5c4C(F)(F)[C@@H]4C[C@H]54)nc4nc(C5CCC(F)(F)CC5)cc(C)c4c3=O)c21` (atropisomer, axis not shown; (P)) [Example 89, N-[(1S)-1-[(3P)-3-[4-chloro-3-methanesulfonamido-1-(3-methoxypropyl)-1H-indazol-7-yl]-7-(4,4-difluorocyclohexyl)-5-methyl-4-oxo-3H,4H-pyrido[2,3-d]pyrimidin-2-yl]-2-(3,5-difluorophenyl)ethyl]-2-[(2S,4R)-5,5-difluoro-9-(trifluoromethyl)-7,8-diazatricyclo[4.3.0.0^2,^4]nona-1(6),8-dien-7-yl]acetamide], the pEC50 in data set [1] was 10.85. Further, the CC50 at 4 days in data set [2] was more than 50 nM.

As to `COCCCn1nc(NS(C)(=O)=O)c2c(Cl)ccc(-n3c([C@H](Cc4cc(F)cc(F)c4)NC(=O)Cn4nc(C(F)F)c5c4C(F)(F)[C@@H]4C[C@H]54)nc4nc(C5CCC(F)(F)CC5)cc(C)c4c3=O)c21` (atropisomer, axis not shown; (P)) [Example 90, N-[(1S)-1-[(3P)-3-[4-chloro-3-methanesulfonamido-1-(3-methoxypropyl)-1H-indazol-7-yl]-7-(4,4-difluorocyclohexyl)-5-methyl-4-oxo-3H,4H-pyrido[2,3-d]pyrimidin-2-yl]-2-(3,5-difluorophenyl)ethyl]-2-[(2S,4R)-9-(difluoromethyl)-5,5-difluoro-7,8-diazatricyclo[4.3.0.0^2,^4]nona-1(6),8-dien-7-yl]acetamide], the pEC50 in data set [1] is 10.74. For the same molecule, the CC50 at 4 days in data set [2] was more than 50 nM.

With `Cc1cc(C2CCC(F)(F)CC2)nc2nc([C@H](Cc3cc(F)cc(F)c3)NC(=O)Cn3nc(C(F)F)c4c3C(F)(F)[C@@H]3C[C@H]43)n(-c3ccc(Cl)c4c(NS(C)(=O)=O)nn(CCOC(F)F)c34)c(=O)c12` (atropisomer, axis not shown; (P)) [Example 94, N-[(1S)-1-[(3P)-3-{4-chloro-1-[2-(difluoromethoxy)ethyl]-3-methanesulfonamido-1H-indazol-7-yl}-7-(4,4-difluorocyclohexyl)-5-methyl-4-oxo-3H,4H-pyrido[2,3-d]pyrimidin-2-yl]-2-(3,5-difluorophenyl)ethyl]-2-[(2S,4R)-9-(difluoromethyl)-5,5-difluoro-7,8-diazatricyclo[4.3.0.0^2,^4]nona-1(6),8-dien-7-yl]acetamide], in data set [1], the pEC50 is 10.64. Besides, in data set [2], the CC50 at 4 days is more than 50 nM.

On to `Cc1cc(C2CCC(F)(F)CC2)nc2nc([C@H](Cc3cc(F)cc(F)c3)NC(=O)Cn3nc(C(F)F)c4c3C(F)(F)[C@@H]3C[C@H]43)n(-c3ccc(Cl)c4c(NS(C)(=O)=O)nn(CCN5CCOCC5)c34)c(=O)c12` (atropisomer, axis not shown; (P)) [Example 105, N-[(1S)-1-[(3P)-3-{4-chloro-3-methanesulfonamido-1-[2-(morpholin-4-yl)ethyl]-1H-indazol-7-yl}-7-(4,4-difluorocyclohexyl)-5-methyl-4-oxo-3H,4H-pyrido[2,3-d]pyrimidin-2-yl]-2-(3,5-difluorophenyl)ethyl]-2-[(2S,4R)-9-(difluoromethyl)-5,5-difluoro-7,8-diazatricyclo[4.3.0.0^2,^4]nona-1(6),8-dien-7-yl]acetamide], for which the pEC50 in data set [1] is 10.96. The CC50 at 4 days in data set [2] was more than 50 nM.

Consider `Cc1cc(C2CCC(F)(F)CC2)nc2nc([C@H](Cc3cc(F)cc(F)c3)NC(=O)Cn3nc(C4CC4)c4c3C(F)(F)[C@@H]3C[C@H]43)n(-c3ccc(Cl)c4c(NS(C)(=O)=O)nn(CCN5CCOCC5)c34)c(=O)c12` (atropisomer, axis not shown; (P)) [Example 112, N-[(1S)-1-[(3P)-3-{4-chloro-3-methanesulfonamido-1-[2-(morpholin-4-yl)ethyl]-1H-indazol-7-yl}-7-(4,4-difluorocyclohexyl)-5-methyl-4-oxo-3H,4H-pyrido[2,3-d]pyrimidin-2-yl]-2-(3,5-difluorophenyl)ethyl]-2-[(2S,4R)-9-cyclopropyl-5,5-difluoro-7,8-diazatricyclo[4.3.0.0^2,^4]nona-1(6),8-dien-7-yl]acetamide], for which the pEC50 in data set [1] is 10.89. The CC50 at 4 days in data set [2] was more than 50 nM.

On to `Cc1cc(C2CCC(F)(F)CC2)nc2nc([C@H](Cc3cc(F)cc(F)c3)NC(=O)Cn3nc(C4CC4)c4c3C[C@@H]3C[C@H]43)n(-c3ccc(Cl)c4c(NS(C)(=O)=O)nn(CCN5CCOCC5)c34)c(=O)c12` (atropisomer, axis not shown; (P)) [Example 114, N-[(1S)-1-[(3P)-3-{4-chloro-3-methanesulfonamido-1-[2-(morpholin-4-yl)ethyl]-1H-indazol-7-yl}-7-(4,4-difluorocyclohexyl)-5-methyl-4-oxo-3H,4H-pyrido[2,3-d]pyrimidin-2-yl]-2-(3,5-difluorophenyl)ethyl]-2-[(2S,4S)-9-cyclopropyl-7,8-diazatricyclo[4.3.0.0^2,^4]nona-1(6),8-dien-7-yl]acetamide], for which the pEC50 in data set [1] was 10.89. Further, the CC50 at 4 days in data set [2] is more than 50 nM.

For `Cc1cc(C2CCC(F)(F)CC2)nc2nc([C@H](Cc3cc(F)cc(F)c3)NC(=O)Cn3nc(C(F)(F)F)c4c3C[C@@H]3C[C@H]43)n(-c3ccc(Cl)c4c(NS(C)(=O)=O)nn(CCN5CCOCC5)c34)c(=O)c12` (atropisomer, axis not shown; (P)) [Example 115, N-[(1S)-1-[(3P)-3-{4-chloro-3-methanesulfonamido-1-[2-(morpholin-4-yl)ethyl]-1H-indazol-7-yl}-7-(4,4-difluorocyclohexyl)-5-methyl-4-oxo-3H,4H-pyrido[2,3-d]pyrimidin-2-yl]-2-(3,5-difluorophenyl)ethyl]-2-[(2S,4S)-9-(trifluoromethyl)-7,8-diazatricyclo[4.3.0.0^2,^4]nona-1(6),8-dien-7-yl]acetamide], in data set [1], the pEC50 was 10.80. In addition, the CC50 at 4 days in data set [2] was more than 50 nM.
